Legend:
HEK293sieSTAT3(wt) [1] = test: drug sensitivity score (DSS), viability CellTiter-Glo (DSS (dimensionless)); higher = more growth inhibition; extreme values may be limits of the assay; conditions: 72 h; STAT3 variant: wild type
Procedure, shortened: (§1)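 Compounds were acoustically pre-plated in 384-well plates at 5 concentrations spaced by 10-fold dilutions, and HEK293 cells overexpressing wild-type or mutant STAT3 and carrying a STAT3-dependent luciferase reporter were added at 100,000 cells/ml in 20 μl. After 72 hours at 37°C and 5% CO2, the plates were read on a PHERAstar FS for CellTox Green fluorescence (485/520 nm) and then CellTiter-Glo luminescence. A drug sensitivity score derived from dose-response curve area was calculated in Breeze from values normalised to negative and positive control wells.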

HEK293sieSTAT3(Y640F) [2] = test: as above; conditions: 72 h; STAT3 variant: Y640F (constitutively active)
Procedure, shortened: as §1

HEK293sieSTAT3(wt) [3] = test: drug sensitivity score (DSS), cytotoxicity CellTox Green (DSS (dimensionless)); higher = more cytotoxic; extreme values may be limits of the assay; conditions: 72 h; STAT3 variant: wild type
Procedure, shortened: as §1

HEK293sieSTAT3(Y640F) [4] = test: as above; conditions: 72 h; STAT3 variant: Y640F (constitutively active)
Procedure, shortened: as §1

Question: What does the source list for COc1c(C)cnc(Cn2cnc3c(Cl)nc(N)nc32)c1C [BIIB021] (top concentration tested 10000 nM)?
Answer: drug sensitivity score (HEK293sieSTAT3(wt) [1]): 27.9; drug sensitivity score (HEK293sieSTAT3(Y640F) [2]): 24.6; drug sensitivity score (HEK293sieSTAT3(wt) [3]): 24.2; drug sensitivity score (HEK293sieSTAT3(Y640F) [4]): 9.95

Question: Which drug sensitivity score (HEK293sieSTAT3(wt) [1]) does the source give for c1cn2cc(-c3ccc4cn[nH]c4c3)nc(Nc3ccc(N4CCOCC4)cc3)c2n1 [Entospletinib] (top concentration tested 5000 nM) here?
Answer: The drug sensitivity score was 0.

Question: And the drug sensitivity score (HEK293sieSTAT3(Y640F) [2])?
Answer: Its drug sensitivity score is 0.

Question: And the drug sensitivity score (HEK293sieSTAT3(wt) [3])?
Answer: The drug sensitivity score was 0.

Question: And the drug sensitivity score (HEK293sieSTAT3(Y640F) [4])?
Answer: The drug sensitivity score was 0.

Question: C[C@@H]1C=C2C(=O)O[C@@H]3CC[C@H](C1)[C@]23O [Galiellalactone] (top concentration tested 25000 nM) was tested. Which drug sensitivity score (HEK293sieSTAT3(wt) [1]) did it give?
Answer: Its drug sensitivity score is 4.61.

Question: What about the drug sensitivity score (HEK293sieSTAT3(Y640F) [2]) of the same molecule?
Answer: Its drug sensitivity score is 4.57.

Question: And the drug sensitivity score (HEK293sieSTAT3(wt) [3])?
Answer: The drug sensitivity score was 3.45.

Question: And the drug sensitivity score (HEK293sieSTAT3(Y640F) [4])?
Answer: Its drug sensitivity score is 0.48.

Question: Which results are given for Cc1csc(-c2nnc(Nc3ccc(Oc4ncccc4-c4ccnc(N)n4)cc3)c3ccccc23)c1 [AMG-900] (top concentration tested 1000 nM)?
Answer: drug sensitivity score (HEK293sieSTAT3(wt) [1]): 3.01; drug sensitivity score (HEK293sieSTAT3(Y640F) [2]): 4.35; drug sensitivity score (HEK293sieSTAT3(wt) [3]): 0; drug sensitivity score (HEK293sieSTAT3(Y640F) [4]): 0

Question: With Nc1ccn([C@@H]2O[C@H](CO)[C@@H](O)C2(F)F)c(=O)n1 [Gemcitabine] (top concentration tested 1000 nM) as the molecule, how does the drug sensitivity score (HEK293sieSTAT3(wt) [1]) read?
Answer: Its drug sensitivity score is 19.5.

Question: What about the drug sensitivity score (HEK293sieSTAT3(Y640F) [2]) of the same molecule?
Answer: The drug sensitivity score was 14.6.

Question: What about the drug sensitivity score (HEK293sieSTAT3(wt) [3]) of the same molecule?
Answer: Its drug sensitivity score is 4.58.

Question: What about the drug sensitivity score (HEK293sieSTAT3(Y640F) [4]) of the same molecule?
Answer: Its drug sensitivity score is 2.77.

Question: How did the drug sensitivity score (HEK293sieSTAT3(wt) [1]) turn out when Nc1nc(Cl)nc2c1ncn2[C@H]1C[C@H](O)[C@@H](CO)O1 [Cladribine] (top concentration tested 1000 nM) was run?
Answer: Its drug sensitivity score is 6.32.

Question: And the drug sensitivity score (HEK293sieSTAT3(Y640F) [2])?
Answer: The drug sensitivity score was 1.45.

Question: What about the drug sensitivity score (HEK293sieSTAT3(wt) [3]) of the same molecule?
Answer: Its drug sensitivity score is 0.33.

Question: What about the drug sensitivity score (HEK293sieSTAT3(Y640F) [4]) of the same molecule?
Answer: Its drug sensitivity score is 0.

Question: Which drug sensitivity score (HEK293sieSTAT3(wt) [1]) does the source give for CC(=O)O[C@@]12CO[C@@H]1C[C@H](O)[C@@]1(C)C(=O)[C@H](O)C3=C(C)[C@@H](OC(=O)[C@H](O)[C@@H](NC(=O)OC(C)(C)C)c4ccccc4)C[C@@](O)([C@@H](OC(=O)c4ccccc4)[C@H]21)C3(C)C [Docetaxel] (top concentration tested 1000 nM) here?
Answer: Its drug sensitivity score is 31.

Question: And the drug sensitivity score (HEK293sieSTAT3(Y640F) [2])?
Answer: The drug sensitivity score was 22.8.

Question: What about the drug sensitivity score (HEK293sieSTAT3(wt) [3]) of the same molecule?
Answer: The drug sensitivity score was 11.3.

Question: What about the drug sensitivity score (HEK293sieSTAT3(Y640F) [4]) of the same molecule?
Answer: Its drug sensitivity score is 1.47.

Question: Which results are given for O=C(O)C(=O)O.[NH-][C@@H]1CCCC[C@H]1[NH-].[Pt+2] [Oxaliplatin] (top concentration tested 100000 nM)?
Answer: drug sensitivity score (HEK293sieSTAT3(wt) [1]): 19.3; drug sensitivity score (HEK293sieSTAT3(Y640F) [2]): 16.9; drug sensitivity score (HEK293sieSTAT3(wt) [3]): 12; drug sensitivity score (HEK293sieSTAT3(Y640F) [4]): 5.26

Question: CN1CC[C@@H](NC(=O)Nc2ccc(C#N)cc2)C[C@@H]1c1nc2ccccc2[nH]1 [Glasdegib] (top concentration tested 1000 nM) was tested. Which drug sensitivity score (HEK293sieSTAT3(wt) [1]) did it give?
Answer: Its drug sensitivity score is 0.

Question: What about the drug sensitivity score (HEK293sieSTAT3(Y640F) [2]) of the same molecule?
Answer: Its drug sensitivity score is 3.01.

Question: And the drug sensitivity score (HEK293sieSTAT3(wt) [3])?
Answer: Its drug sensitivity score is 0.

Question: What about the drug sensitivity score (HEK293sieSTAT3(Y640F) [4]) of the same molecule?
Answer: Its drug sensitivity score is 0.

Question: For CC(C)CC(=O)Nc1n[nH]c2c1CN(C(=O)C1CCN(C)CC1)C2(C)C (top concentration tested 10000 nM), which drug sensitivity score (HEK293sieSTAT3(wt) [1]) is on record?
Answer: Its drug sensitivity score is 13.4.

Question: And the drug sensitivity score (HEK293sieSTAT3(Y640F) [2])?
Answer: The drug sensitivity score was 12.4.

Question: And the drug sensitivity score (HEK293sieSTAT3(wt) [3])?
Answer: The drug sensitivity score was 19.

Question: And the drug sensitivity score (HEK293sieSTAT3(Y640F) [4])?
Answer: Its drug sensitivity score is 4.64.

Question: Which drug sensitivity score (HEK293sieSTAT3(wt) [1]) does the source give for CC[C@H](C)C(=O)O[C@H]1C[C@@H](C)C=C2C=C[C@H](C)[C@H](CC[C@@H]3C[C@@H](O)CC(=O)O3)[C@H]21 [Lovastatin] (top concentration tested 10000 nM) here?
Answer: The drug sensitivity score was 0.12.

Question: And the drug sensitivity score (HEK293sieSTAT3(Y640F) [2])?
Answer: Its drug sensitivity score is 0.

Question: What about the drug sensitivity score (HEK293sieSTAT3(wt) [3]) of the same molecule?
Answer: The drug sensitivity score was 0.

Question: And the drug sensitivity score (HEK293sieSTAT3(Y640F) [4])?
Answer: Its drug sensitivity score is 0.

Question: Which results are given for CN(C)C(=N)NC(=N)N [Metformin] (top concentration tested 100000 nM)?
Answer: drug sensitivity score (HEK293sieSTAT3(wt) [1]): 2.41; drug sensitivity score (HEK293sieSTAT3(Y640F) [2]): 0.22; drug sensitivity score (HEK293sieSTAT3(wt) [3]): 2.32; drug sensitivity score (HEK293sieSTAT3(Y640F) [4]): 0

Question: Which results are given for N#Cc1ccc(C(c2ccc(C#N)cc2)n2cncn2)cc1 [Letrozole] (top concentration tested 10000 nM)?
Answer: drug sensitivity score (HEK293sieSTAT3(wt) [1]): 0.66; drug sensitivity score (HEK293sieSTAT3(Y640F) [2]): 4.14; drug sensitivity score (HEK293sieSTAT3(wt) [3]): 0.02; drug sensitivity score (HEK293sieSTAT3(Y640F) [4]): 0

Question: Which results are given for c1ccc2c(CCNc3ccc(Nc4ccncc4)cc3)c[nH]c2c1 [Serdemetan] (top concentration tested 10000 nM)?
Answer: drug sensitivity score (HEK293sieSTAT3(wt) [1]): 7.89; drug sensitivity score (HEK293sieSTAT3(Y640F) [2]): 5.06; drug sensitivity score (HEK293sieSTAT3(wt) [3]): 1.74; drug sensitivity score (HEK293sieSTAT3(Y640F) [4]): 0

Question: With CN(Cc1cnc2nc(N)nc(N)c2n1)c1ccc(C(=O)N[C@@H](CCC(=O)O)C(=O)O)cc1 [Methotrexate] (top concentration tested 5000 nM) as the molecule, how does the drug sensitivity score (HEK293sieSTAT3(wt) [1]) read?
Answer: Its drug sensitivity score is 17.

Question: And the drug sensitivity score (HEK293sieSTAT3(Y640F) [2])?
Answer: Its drug sensitivity score is 26.1.

Question: What about the drug sensitivity score (HEK293sieSTAT3(wt) [3]) of the same molecule?
Answer: Its drug sensitivity score is 1.17.

Question: What about the drug sensitivity score (HEK293sieSTAT3(Y640F) [4]) of the same molecule?
Answer: The drug sensitivity score was 0.

Question: FC(F)(F)c1ccc(CNc2ccc(Cc3c[nH]c4ncc(Cl)cc34)cn2)cn1 [Pexidartinib] (top concentration tested 10000 nM) was tested. Which drug sensitivity score (HEK293sieSTAT3(wt) [1]) did it give?
Answer: The drug sensitivity score was 2.35.

Question: What about the drug sensitivity score (HEK293sieSTAT3(Y640F) [2]) of the same molecule?
Answer: The drug sensitivity score was 3.45.

Question: And the drug sensitivity score (HEK293sieSTAT3(wt) [3])?
Answer: Its drug sensitivity score is 0.

Question: What about the drug sensitivity score (HEK293sieSTAT3(Y640F) [4]) of the same molecule?
Answer: The drug sensitivity score was 0.

Question: What does the source list for Nc1nc(OCc2cc(Br)cs2)c2[nH]cnc2n1 [Lomeguatrib] (top concentration tested 10000 nM)?
Answer: drug sensitivity score (HEK293sieSTAT3(wt) [1]): 0.39; drug sensitivity score (HEK293sieSTAT3(Y640F) [2]): 2.48; drug sensitivity score (HEK293sieSTAT3(wt) [3]): 0.01; drug sensitivity score (HEK293sieSTAT3(Y640F) [4]): 0
